In patent US20190062272A1, “SMALL MOLECULES FOR IMMUNOGENIC TREATMENT OF CANCER” (Capten Therapeutics Inc., priority 2017, published 2019):

Legend:
Type in all cases: cell-based
B16F10 Melanoma = test: Cytotoxicity assay (Cell Titer GLO, 72 hours), B16F10; conditions: Mus musculus, B16-F10, B16F10 Melanoma cells, cell viability by Cell Titer GLO, read-out: GC50 (the source's name)
Method: (§1) Cell lines used: CT26, B16F10 and NIH3T3
(§2) Concentration range of drug to be tested: 50 nM to 50 uM
(§3) Cells were plated in a 96 well plate and when they are about 50% confluent the drug was added in DMSO so that the final concentration of DMSO is 0.1% (v/v) of less and incubated for 72 hours. The cell viability is then determined using Cell Titer GLO.

CT26 Colon Cancer = test: Cytotoxicity assay (Cell Titer GLO, 72 hours), CT26; conditions: Mus musculus, CT26 Colon Cancer cells, cell viability by Cell Titer GLO, read-out: GC50 (the source's name)
Method: as §1, §2, §3

NIH 3T3 Non-tumor = test: Cytotoxicity assay (Cell Titer GLO, 72 hours), NIH3T3; conditions: Mus musculus, NIH 3T3 Non-tumor cells, cell viability by Cell Titer GLO, read-out: GC50 (the source's name)
Method: as §1, §2, §3

C=CC(=O)NCCSc1ccc(O)c(O)c1 [Compound 10, N-[2-(3,4-dihydroxyphenyl)sulfanylethyl]propenamide]
IC50 (B16F10 Melanoma): > 50 µM | IC50 (CT26 Colon Cancer): > 50 µM | IC50 (NIH 3T3 Non-tumor): > 50 µM

C=CC(=O)NCCSc1cc(O)ccc1O [Compound 12, N-[2-(2,5-dihydroxyphenyl)sulfanylethyl]propenamide]
IC50 (B16F10 Melanoma): > 50 µM | IC50 (CT26 Colon Cancer): 14.2 µM | IC50 (NIH 3T3 Non-tumor): 3.3 µM

C=CC(=O)NCCSc1cccc(O)c1O [Compound 14, N-[2-(2,3-dihydroxyphenyl)sulfanylethyl]propenamide]
IC50 (B16F10 Melanoma): 4.7 µM | IC50 (CT26 Colon Cancer): 9.9 µM | IC50 (NIH 3T3 Non-tumor): > 50 µM
